Molecular target: GR complex
Assay: [35S]TBPS binding assay (inhibition of [35S]TBPS binding, cerebral cortex P2 homogenate)
Set-up: species or system rat
Conditions: for IC50: 2 nM [35S]TBPS, rat cerebral cortex P2 homogenate; for IMAX: maximum inhibition of [35S]TBPS binding
Experimental: We performed several experiments to determine the nature of the modulation of [^35S]TBPS as affected by the compounds of the invention.
These procedures were performed as follows:
Brains from male Sprague-Dawley rats were removed immediately following sacrifice and the cerebral cortices dissected over ice. […] Briefly, the cortices were gently homogenized in 0.32 M sucrose followed by centrifugation at 1000 x g for 10 minutes. The supernatant was collected and centrifuged at 9000 x g for 20 minutes. The resultant P2 pellet was suspended as a 10% (original wet weight/volume) suspension in 50 mM Na/K phosphate buffer (pH 7.4) 200 mM NaCl to form the homogenate.
One hundred microliter […] aliquots of the P2 homogenate (0.5 milligrams (mg) protein) were incubated with 2 nanomolar (nM) [^35S]TBPS (70-110 curies/millimole; New England Nuclear, Boston, MA) in the presence or absence of the naturally occurring steroids or their synthetic derivatives to be tested. The tested compounds were dissolved in dimethylsulfoxide (Baker Chem. Co., Phillipsbury, NJ) and added to the incubation mixture in 5 µL aliquots. The incubation mixture was brought to a final volume of 1 mL with buffer. Non-specific binding was defined as binding in the presence of […] TBPS. The effect and specificity of GABA (Sigma Chem. Co., St. Louis, MO) was evaluated by performing all assays in the presence of GABA plus (+)bicuculline (Sigma Chem. Co.). maintained at 25°C for 90 minutes (steady state conditions) were terminated by rapid filtration through glass fiber filters (No. 32, Schleicher and Schuell, Keene, NH). Filter-bound radioactivity was quantitated by liquid scintillation spectrophotometry.
Various compounds were screened to determine their potential as modulators of [^35S]TBPS binding in vitro. These assays were performed in accordance with the above discussed procedures. […] It is an indication of a compound's in vitro potency. Maximum inhibition is an indication of a compound's in vitro efficacy.

Structure (SMILES)	IC50	IMAX
CC(=O)[C@H]1CC[C@H]2[C@@H]3CC[C@@H]4C[C@@](O)(Cc5ccccc5)CC[C@]4(C)[C@H]3CC[C@]12C [3β-Benzyl-3α-hydroxy-5β-pregnan-20-one, 3α-hydroxy-3β-benzyl-5β-pregnan-20-one]	109 nM	102%
CC12CCC(O)CC1CCC1C2CCC2(C)C(C(=O)Cn3cnc4ccccc43)CCC12 (stereo not drawn) [3α-hydroxy-21-(1'-benzimidazolyl)5β-pregnan-20-one]	53 nM	100%
CC(=O)c1cccc(C#C[C@@]2(O)CC[C@@]3(C)[C@H](CC[C@@H]4[C@@H]3CC[C@]3(C)[C@@H](C(C)=O)CC[C@@H]43)C2)c1 [3β-(3'-Acetylphenylethynyl)-3α-hydroxy-5β-pregnan-20-one]	62 nM	100%
C[C@]12CC[C@@H](O)C[C@H]1CC[C@@H]1[C@@H]2CC[C@]2(C)[C@@H](C(=O)Cn3cnnn3)CC[C@@H]12 [3α-hydroxy-21-(1'H-1,2,3,4-tetrazol-1'-yl)-5β-pregnan-20-one]	227 nM	60%
CC(=O)[C@H]1CC[C@H]2[C@@H]3CC[C@@H]4C[C@@](O)(C#CCCC(N)=O)CC[C@]4(C)[C@H]3CC[C@]12C [3β-(4'-Carboxamidobutynyl)-3α-hydroxy-5β-pregnan-20-one]	2340 nM	102%
CC(=O)c1ccc(C#CC2(O)CCC3C(CCC4C3CCC3(C)C(C(C)=O)CCC43)C2)cc1 (stereo not drawn) [3β-(4'-Acetylphenyl)ethynyl-3α-hydroxy-19-nor-20-one]	14 nM	103%
CC(=O)OCC(=O)c1ccc(C#C[C@@]2(O)CC[C@@]3(C)[C@H](CC[C@@H]4[C@@H]3CC[C@]3(C)[C@@H](C(C)=O)CC[C@@H]43)C2)cc1 [3α-hydroxy-3β-(4'-acetoxyacetylphenylethynyl)-5β-pregnan-20-one]	171 nM	91%
CCN(CC)C(=O)c1ccc(C#CC2(O)CCC3(C)C(CCC4C3CCC3(C)C(C(C)=O)CCC43)C2)cc1 (stereo not drawn) [3β-[4'-(N,N-diethylcarboxamido)phenyl]ethynyl-3α-hydroxy-5β-pregnan-20-one]	87 nM	94%
C[C@]12CC[C@](O)(C#CCCO)C[C@H]1CC[C@@H]1[C@@H]2CC[C@]2(C)[C@@H](C(=O)Cn3ccnc3)CC[C@@H]12 [3α-Hydroxy-3β-(4-hydroxybutyn-1-yl)-21-(1-imidazolyl)-5β-pregnan-20-one]	54 nM	93%
CC(=O)[C@H]1CC[C@H]2[C@@H]3CC[C@@H]4C[C@@](O)(C#Cc5ccncc5)CC[C@]4(C)[C@H]3CC[C@]12C [3α-Hydroxy-3β-(4-pyridyl)ethynyl-5β-pregnan-20-one]	149 nM	103%
CC(=O)[C@H]1CC[C@H]2[C@@H]3CC[C@H]4C[C@@](O)(C#CCC(C)O)CC[C@]4(C)[C@H]3CC[C@]12C (mixture of isomers) [3β-[4'(R/S)-hydroxy-1'-pentynyl]-3α-hydroxy-5α-pregnan-20-one]	178 nM	101%
C[C@@]1(O)CC[C@@]2(C)[C@@H](CC[C@@H]3[C@@H]2CC[C@]2(C)[C@@H](C(=O)Cn4ccnn4)CC[C@@H]32)C1 [3α-hydroxy-3β-methyl-21-(1',2',3'-triazol-1'-yl)-5α-pregnan-20-one]	136 nM	99%
CC(=O)C#C[C@@]1(O)CC[C@@]2(C)[C@@H](CC[C@@H]3[C@@H]2CC[C@]2(C)[C@@H](C(C)=O)CC[C@@H]32)C1 [3α-Hydroxy-3β-[3'-oxobutynyl]-5α-pregnan-20-one]	6510 nM	104%
COCC#C[C@@]1(O)CC[C@@]2(C)[C@H](CC[C@@H]3[C@@H]2CC[C@]2(C)[C@@H](C(C)=O)CC[C@@H]32)C1 [3α-Hydroxy-3β-(3-methoxy-1-propynyl)-5β-pregnan-20-one]	–	105%
C[C@]12CC[C@H]3[C@@H](CC[C@@H]4C[C@@](O)(C#CCCO)CC[C@@H]43)[C@@H]1CC[C@@H]2C(=O)Cn1nccn1 [3α-hydroxy-3β-(4-hydroxybutyn-1-yl)-21-(2H-1,2,3-triazol-2-yl)-5β-19-norpregnan-20-one]	56 nM	93%
C[C@]12CC[C@H]3[C@@H](CC[C@@H]4C[C@@](O)(C#CCCO)CC[C@@H]43)[C@@H]1CC[C@@H]2C(=O)Cn1ccnn1 [3α-hydroxy-3β-(4-hydroxybutyn-1-yl)-21-(1H-1,2,3-triazol-1-yl)-5β-19-norpregnan-20-one]	124 nM	95%
CC(=O)C1CCC2C3CCC4CC(O)(C#CCCO)CCC4C3CCC12C (stereo not drawn) [3β-(4'-hydroxy-1'-butynyl)-3α-hydroxy-5β-19-norpregnan-20-one]	22 nM	102%

Structure (SMILES)	IC50	IMAX
CC(=O)[C@H]1CC[C@H]2[C@@H]3CC[C@@H]4C[C@@](O)(C#CCCC#N)CC[C@]4(C)[C@H]3CC[C@]12C [3β-(4-cyano-1-butynyl)-3α-hydroxy-5β-pregnan-20-one]	131 nM	86%
CCOC(=O)c1ccc(C#CC2(O)CCC3(C)C(CCC4C3CCC3(C)C(C(C)=O)CCC43)C2)cc1 (stereo not drawn) [3β-(4'-Carboxyphenylethynyl)-3α-hydroxy-5α-pregnan-20-one ethyl ester]	7 nM	79%
CC(=O)[C@H]1CC[C@H]2[C@@H]3CC[C@@H]4C[C@@](O)(C#CCCO)CC[C@]4(C)[C@H]3C(=O)C[C@]12C [3β-(4'-Hydroxy-1'-butynyl)-3α-hydroxy-5β-pregnan-11,20-dione]	268 nM	102%
CC(=O)[C@H]1CC[C@H]2[C@@H]3CC[C@@H]4C[C@@](O)(C#CCO)CC[C@]4(C)[C@H]3CC[C@]12C [3β-(3'-hydroxy-1'-propynyl)-3α-hydroxy-5β-pregnan-20-one]	137 nM	93%
CC(=O)OCCCCC#C[C@@]1(O)CC[C@@]2(C)[C@H](CC[C@@H]3[C@@H]2CC[C@]2(C)[C@@H](C(C)=O)CC[C@@H]32)C1 [3β-(6'Acetoxy-1'-hexynyl)-3α-hydroxy-5β-pregnan-20-one]	306 nM	99%
CC12CCC(O)(C#CCO)CC1CCC1C2CCC2(C)C(C(=O)Cn3nccn3)CCC12 (stereo not drawn) [3α-Hydroxy-3β-(3-hydroxypropyn-1-yl)-21-(1,2,3-triazol-2-yl)-5β-pregnan-20-one]	430 nM	107%
C[C@]12CC[C@@H](O)C[C@@H]1CC[C@@H]1[C@@H]2CC[C@]2(C)[C@@H](C(=O)Cn3ccnc3)CC[C@@H]12 [3α-hydroxy-21-(1'-imidazolyl)-5α-pregnan-20-one]	71 nM	99%
C[C@]12CC[C@@H](O)C[C@@H]1CC[C@@H]1[C@@H]2CC[C@]2(C)[C@@H](C(=O)Cn3ccc(=O)[nH]c3=O)CC[C@@H]12 [3α-Hydroxy-21-(1'-uracil)-5α-pregnan-20-one]	434 nM	90%
C[C@]12CC[C@@H](O)C[C@H]1CC[C@@H]1[C@@H]2CC[C@]2(C)[C@@H](C(=O)Cn3cnc4cncnc43)CC[C@@H]12 [3α-hydroxy-21-(9'H-purin-9'-yl-5β-pregnan-20-one]	69 nM	59%
C[C@]12CC[C@@H](O)C[C@H]1CC[C@@H]1[C@@H]2CC[C@]2(C)[C@@H](C(=O)Cn3ccnc3)CC[C@@H]12 [3α-Hydroxy-21-(1'-imidazolyl)-5β-pregnan-20-one]	73 nM	57%
CC(=O)C1CCC2C3CCC4CC(O)(C#CCn5nccn5)CCC4(C)C3CCC12C (stereo not drawn) [3α-Hydroxy-3β-[3-(2'H-1,2,3-triazol-2'-yl)-1-propynyl]-5β-pregnan-20-one]	66 nM	98%
CC(=O)[C@H]1CC[C@H]2[C@@H]3CC[C@@H]4C[C@@](O)(C#CCn5ccnc5)CC[C@]4(C)[C@H]3CC[C@]12C [3α-Hydroxy-3β-[3'-(N-imidazolyl)-1'-propynyl)-5β-pregnan-20-one]	2720 nM	107%
CC(=O)[C@H]1CC[C@H]2[C@@H]3CC[C@@H]4C[C@@](O)(C#CCCCCO)CC[C@]4(C)[C@H]3CC[C@]12C [3β-(6-hydroxy-1-hexynyl)-3α-hydroxy-5β-pregnan-20-one]	222 nM	99%
CC(=O)OCCC#CC1(O)CCC2(C)C(CCC3C2CCC2(C)C(C(C)=O)CCC32)C1 (stereo not drawn) [3β-(4'-Acetoxy-1'-butynyl)-3α-hydroxy-5β-pregnan-20-one]	20 nM	96%
CC(=O)[C@H]1CC[C@H]2[C@@H]3CC[C@@H]4C[C@@](O)(C#Cc5cccnc5)CC[C@]4(C)[C@H]3CC[C@]12C [3α-Hydroxy-3β-(3-pyridyl)ethynyl-5β-pregnan-20-one]	138 nM	100%
CC(=O)[C@H]1CC[C@H]2[C@@H]3CC[C@@H]4C[C@@](O)(c5ccccc5)CC[C@]4(C)[C@H]3CC[C@]12C [3α-Hydroxy-3β-phenyl-5β-pregnan-20-one, 3α-hydroxy-3β-phenyl-5β-pregnan-20-one]	382 nM	86%
